Results on 14 compounds are retold here after PubChem BioAssay (NCI).

Holding throughout (test): NCI tumour cell line growth inhibition, 48 h
Test [1] concerns A498 renal.
In test [2] the test system is A549 NSCLC.
Test [3] has as its system HCC-2998 colon.
In test [4] the test system is HL-60(TB) leukemia.
Test [5] concerns M14 melanoma.
Test [6] concerns RXF 393 renal.
The subject of test [7] is SF-295 CNS.
Test [8] deals with SN12C renal.
Test [9] relates to SNB-19 CNS.
For test [10], the system named is U251 CNS.

The structures appear in SMILES notation. Several values for one entry are separate records, joined by “and”; a condition that tells them apart may be missing. Identical values can stand only once.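 Each compound was tested at five concentrations against cells in 96-well plates for 48 hours. GI50 marks 50% less growth. At the TGI there is no net growth.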

Take `Cl.[O-]c1cccc2cccnc12.[O-]c1cccc2cccnc12.[O-]c1cccc2cccnc12.[O-]c1cccc2cccnc12.[Ti+4]`: the GI50 in test [1] is 8.24 µM; in test [2], 0.89 µM; in [3], 2.1 µM; in test [4] it was 0.226 µM; in test [5] it was 0.994 µM; in test [6], 0.319 µM. The GI50 was 3.09 µM in test [7], 2.74 µM in test [8], 70.8 µM in [9] and 2.53 µM in test [10]. In addition, the TGI in [1] is 21.7 µM; in [2], 12 µM; in [3] it was 4.5 µM; in test [5], 17.8 µM; in [6] it was 2.13 µM; in test [7], greater than 100 µM. The TGI in test [8] was greater than 91.1 µM; in test [9], greater than 100 µM; in [10] it was 30.5 µM.
In the case of `C[C@H]1[C@H](C)CC[C@]2(C(=O)O)CCC3(COC(=O)/C=C/c4ccc(O)cc4)C(=CCC4[C@@]5(C)CC[C@H](O)C(C)(C)C5CC[C@]43C)[C@H]12` (stereo not given in full), the TGI in test [1] was 15.3 µM; in test [2], 10.3 µM; in test [3] it was 18.2 µM; in test [4], 53.1 µM; in [5], 24.9 µM; in [6], 23.5 µM. Besides, the TGI was 13.2 µM in test [7], 20.8 µM in [8], 22.5 µM in [9] and 9.92 µM in test [10].
With `CC[C@H](C)C(=O)O[C@H]1CCC=C2C=C[C@H](C)[C@H](CC[C@@H]3C[C@@H](O)CC(=O)O3)[C@H]21`, the GI50 in [1] is 0.183 µM; in test [2], 11.7 µM; in test [3], 36.9 µM; in test [4], 17.1 µM; in test [5], 8.97 µM; in test [6] it was 3.32 µM. For the same compound, the GI50 in test [7] was 1.66 µM; in test [8], 3.88 µM; in [9] it was 3.54 µM; in test [10], 1.13 µM. Also, the TGI in test [1] was 1.36 µM; in test [2], greater than 100 µM; in test [3], greater than 100 µM; in test [4], 76.5 µM; in test [5], greater than 100 µM; in test [6] it was 16.6 µM. For the same compound, the TGI in test [7] is 4.32 µM; in [8], greater than 100 µM; in test [9], greater than 100 µM; in test [10] it was greater than 100 µM.
Consider `O=C(CC1(O)C(=O)Nc2c(Cl)cc(Cl)cc21)c1ccc([N+](=O)[O-])cc1` (stereo not given), for which the TGI in [1] is greater than 67.9 µM; in [2], greater than 100 µM; in test [3], greater than 100 µM; in [4] it was greater than 52.5 µM; in test [5], greater than 55.7 µM; in test [6], greater than 100 µM. Also, the TGI was greater than 100 µM in test [7], greater than 68 µM in test [8], greater than 100 µM in test [9] and greater than 100 µM in test [10].
Take `CCc1cc2c(Nc3ccccc3)c3c(nc2s1)CCCC3`: the TGI in test [1], in test [2], in [3], in [4], in test [5] and in [6] was greater than 100 µM each time. The TGI in [7], in test [8], in test [9] and in test [10] was greater than 100 µM in each case.
Consider `C=C1C(=O)O[C@H]2C3OC3(C)CC/C=C(/C(=O)OC)[C@@H](OC(C)=O)[C@H](OC(=O)C3(C)OC3C)[C@H]12` (stereo not given in full), for which the GI50 is 1.69 µM and 2.85 µg/mL in test [1]; 9.7 µM and 12.5 µM and 5.5 µg/mL in test [2]; 3.65 µM and 2.5 µg/mL in test [3]; 154 nM and 0.285 µg/mL in test [4]; 1.5 µM and 850 nM and 0.499 µg/mL in test [5]; 364 nM and 190 nM and 0.407 µg/mL in [6]. Moreover, the GI50 is 4.84 µg/mL in test [7]; 1.5 µM and 2.97 µM and 2.45 µg/mL in test [8]; 23.1 µg/mL in [9]; 3.73 µM and 5.25 µg/mL in test [10]. Further, the TGI is 4.26 µM and 5.4 µg/mL in test [1]; 31.6 µM and 17.5 µg/mL in test [2]; 12.4 µM and 4.62 µg/mL in test [3]; 477 nM and 655 nM and 0.679 µg/mL in test [4]; 3.13 µM and 2.4 µM and 1.29 µg/mL in [5]; 838 nM and 531 nM and 0.951 µg/mL in test [6]. The TGI was 14.8 µg/mL in test [7]; 4.68 µM and 10.4 µM and 6.03 µg/mL in [8]; > 7.5 µM and 53.5 µg/mL in test [9]; 12.7 µM and 14.9 µg/mL in test [10].
With `CC(/C=C1\CCC(CN(C)C)C1=O)c1cccc(Br)c1` (stereo not given), the TGI is greater than 58.5 µM in test [1]; greater than 96.2 µM in test [2]; 35.9 µM in test [3]; 10.8 µM in test [4]; 29.2 µM in [5]; 26.5 µM in test [6]. The TGI in [7] is 42.3 µM; in [8], 43.3 µM; in [9], 61.2 µM; in test [10] it was 32.4 µM.
`Cc1cc(=O)n2c(cc3cccccc32)n1`: the TGI in test [1], in [2], in test [3], in test [4], in [5] and in test [6] was greater than 100 µM throughout. Further, the TGI in test [7], in test [8], in test [9] and in test [10] was greater than 100 µM in each case.
Consider `COC1/C=C/OC2(C)Oc3c(C)c(O)c4c(O)c(c(/C=N/N(c5ccccc5)c5ccccc5)c(O)c4c3C2=O)NC(=O)C(C)=C/C=C/C(C)C(O)C(C)C(O)C(C)C(OC(C)=O)C1C` (stereo not given), for which the GI50 in [1] was 1.63 µM; in [2], 2.11 µM; in [3] it was 1.71 µM; in test [4], 1.6 µM; in [6] it was 0.963 µM; in test [7], 2.18 µM. Further, the GI50 was 1.81 µM in test [8], 2.64 µM in test [9] and 1.2 µM in [10]. Also, the TGI came out at 7.42 µM in test [1]; 7.8 µM in [2]; 6.16 µM in [3]; 3.58 µM in [4]; 1.93 µM in [6]; 8.82 µM in test [7]. In addition, the TGI in [8] was determined as 7.46 µM; in [9], 12.1 µM; in [10], 3 µM.
Consider `CCCCCCCCC1C(C)c2c([nH]c3ccccc23)C2C(=O)N(c3ccccc3)C(=O)C21` (stereo not given), for which the TGI amounted to 36.9 µM in [1]; 38 µM in test [2]; 25.6 µM in test [3]; 13.9 µM in test [4]; 28 µM in test [5]; 6.84 µM in test [6]. In addition, the values for the TGI in [7], in [8] and in test [10] were 29.8 µM, 23.8 µM and 22.9 µM, respectively.
In the case of `CN(C)c1ccc2cc3c(cc2c1)Oc1ccccc1N3.[Cl][Zn][Cl]`, the GI50 was 16.9 µM in test [1]; 20.9 µM in test [2]; 16.5 µM in [3]; 2.61 µM in [4]; 4.73 µM in test [5]; 3.28 µM in [6]. The GI50 in test [7] was 18 µM; in test [8], 11.6 µM; in test [9], 20.6 µM. In addition, the TGI in test [1] was 34.7 µM; in [2], 51.5 µM; in test [3], 31.8 µM; in [4], 7.3 µM; in test [5], 18 µM; in test [6], 9.01 µM. Also, the TGI in test [7] amounted to 39.7 µM; in test [8], 63.9 µM; in [9], 52.2 µM.
`CC(=O)CCn1[nH]c(=O)c(Cl)c(Cl)c1=O`: the TGI in test [1], in test [2], in test [3], in test [4], in test [5] and in test [6] was greater than 100 µM throughout. The TGI is greater than 100 µM in test [7], greater than 100 µM in [8] and 31.1 µM in test [9].
`O=C1C(c2ccccc2)=[N+]([O-])c2cc([N+](=O)[O-])ccc21`: the TGI in [1] is greater than 100 µM; in [2], greater than 100 µM; in test [3] it was 77.4 µM; in [4], 30.1 µM; in test [6], 34.9 µM; in [7], greater than 100 µM. Further, the figures for the TGI in test [8], in test [9] and in test [10] were 59.6 µM, greater than 100 µM and greater than 100 µM, respectively.
As for `COc1ccccc1-c1ccc2c(N)c(C(=O)c3ccc4c(c3)OCO4)sc2n1`, the GI50 in [1] is 2.39 µM; in [2], 4.05 µM; in test [3], 12 µM; in test [4], 4.83 µM; in [5], 4.21 µM; in test [6], 3.01 µM. The GI50 is 3.98 µM in [7], 6.14 µM in test [8] and 7.97 µM in test [9]. The TGI was 13.8 µM in [1]; 16.6 µM in test [2]; 29.1 µM in test [3]; greater than 100 µM in test [4]; 75 µM in test [5]; 11.2 µM in test [6]. Also, the TGI was 18.5 µM in test [7], 24.5 µM in [8] and 30.2 µM in test [9].
